Legend:
[1] = system: Pseudoperonospora cubensis; assay: Test 2: control effect against cucumber downy mildew; assay type: in vivo
Phytophthora infestans = assay: whole plant or invertebrate; assay type: in vivo; details: for pest or weed control at 50 ppm: read-out: Test 1 preventive value, Measured, applied alone, 50 ppm; for pest or weed control at 10 ppm: read-out: Test 1 preventive value, Measured, applied alone, 10 ppm; for Test 1 preventive value, Measured: applied alone
[2] = Pseudoperonospora cubensis, applied alone, 10 ppm, read-out: Test 2 preventive value, Measured
[3] = Pseudoperonospora cubensis, applied alone, 50 ppm, read-out: Test 2 preventive value, Measured
[4] = Pseudoperonospora cubensis, applied alone, read-out: Test 2 preventive value, Measured
[5] = Phytophthora infestans, in Solanum lycopersicum

Basic copper sulfate
Test 2 Measured ([1]; component (b) alone, 20 ppm): 32
Test 2 Measured preventive value ([1]; component (b) alone, 20 ppm): 18.8
Test 2 Measured ([1]; component (b) alone, 100 ppm): 80.9
Test 2 Measured preventive value ([1]; component (b) alone, 100 ppm): 82
Test 2 Measured ([1]; component (b) alone, 500 ppm): 95
Test 2 Measured preventive value ([1]; component (b) alone, 500 ppm): 97
Test 1 Measured (Phytophthora infestans; component (b) alone, 20 ppm): 55
Test 1 Measured preventive value (Phytophthora infestans; component (b) alone, 20 ppm): 71.7
Test 1 Measured (Phytophthora infestans; component (b) alone, 100 ppm): 90.7
Test 1 Measured preventive value (Phytophthora infestans; component (b) alone, 100 ppm): 92.5
Test 1 Measured (Phytophthora infestans; component (b) alone, 500 ppm): 100
Test 1 Measured preventive value (Phytophthora infestans; component (b) alone, 500 ppm): 100

Cc1cc(C2CC2)nc(Nc2ccccc2)n1 [Cyprodinil]
pest or weed control at 20 ppm ([1]; Pseudoperonospora cubensis, component (b) alone 20 ppm, read-out: Test 2 Measured): 0%
pest or weed control at 100 ppm ([1]; Pseudoperonospora cubensis, component (b) alone 100 ppm, read-out: Test 2 Measured): 0%
pest or weed control at 20 ppm (Phytophthora infestans; Phytophthora infestans, in Solanum lycopersicum, read-out: Test 1 Measured, component (b) alone 20 ppm): 0%
pest or weed control at 100 ppm (Phytophthora infestans; Phytophthora infestans, in Solanum lycopersicum, read-out: Test 1 Measured, component (b) alone 100 ppm): 0%
pest or weed control at 500 ppm (Phytophthora infestans; Phytophthora infestans, in Solanum lycopersicum, read-out: Test 1 Measured, component (b) alone 500 ppm): 0%

CC(=O)Oc1c(C)c(C)nc2c(F)cc(C(C)(C)C)cc12 [Tebufloquin]
Test 2 Measured ([1]; component (b) alone 4 ppm): 0
Test 2 Measured ([1]; component (b) alone, 20 ppm): 0
Test 2 Measured ([1]; component (b) alone, 100 ppm): 0
Test 1 Measured (Phytophthora infestans; component (b) alone 4 ppm): 0.0
Test 1 Measured (Phytophthora infestans; component (b) alone, 20 ppm): 0.0
Test 1 Measured (Phytophthora infestans; component (b) alone, 100 ppm): 46.7

CON=C(C(=O)OC)c1ccccc1CON=C(C)c1cccc(C(F)(F)F)c1 [Trifloxystrobin]
pest or weed control at 10 ppm [1, 2]: 0%
pest or weed control at 50 ppm [1, 3]: 0%
pest or weed control at 250 ppm [1, 4]: 0%
pest or weed control at 50 ppm (Phytophthora infestans; [5]): 28.3%

Cc1ccc(C(C)NC(=O)[C@@H](NC(=O)OC(C)C)C(C)C)cc1 (stereo partly drawn) [Iprovalicarb]
Test 2 Measured ([1]; component (b) alone, 0.4 ppm): 0
Test 2 Measured ([1]; component (b) alone, 2 ppm): 0
Test 2 Measured ([1]; component (b) alone, 10 ppm): 93.8
Test 1 Measured (Phytophthora infestans; component (b) alone, 0.4 ppm): 15
Test 1 Measured (Phytophthora infestans; component (b) alone, 2 ppm): 93.3
Test 1 Measured (Phytophthora infestans; component (b) alone, 10 ppm): 100

C[C@@]1(c2ccc(Oc3ccccc3)cc2)OC(=O)N(Nc2ccccc2)C1=O (racemic) [Famoxadone]
pest or weed control at 2 ppm ([1]; Pseudoperonospora cubensis, applied alone, 2 ppm, read-out: Test 2 preventive value, Measured): 0%
pest or weed control at 10 ppm [1, 2]: 0%
pest or weed control at 50 ppm [1, 3]: 0%
pest or weed control at 2 ppm (Phytophthora infestans; Phytophthora infestans, in Solanum lycopersicum, read-out: Test 1 preventive value, Measured, applied alone, 2 ppm): 0%
pest or weed control at 10 ppm (Phytophthora infestans; [5]): 0%
pest or weed control at 50 ppm (Phytophthora infestans; [5]): 10%

N=C(N)NCCCCCCCCNCCCCCCCCNC(=N)N [Iminoctadine]
Test 2 Measured ([1]; component (b) alone, 20 ppm): 79.5
Test 2 Measured ([1]; component (b) alone, 100 ppm): 97
Test 2 Measured ([1]; component (b) alone, 500 ppm): 99
Test 1 Measured (Phytophthora infestans; component (b) alone, 20 ppm): 5
Test 1 Measured (Phytophthora infestans; component (b) alone, 100 ppm): 92.5
Test 1 Measured (Phytophthora infestans; component (b) alone, 500 ppm): 96.5

CCCCCCCCc1c(CC)nc2ncnn2c1N [Ametoctradin]
Test 2 Measured ([1]; component (b) alone, 0.4 ppm): 77.5
Test 2 Measured ([1]; component (b) alone, 2 ppm): 95
Test 2 Measured ([1]; component (b) alone, 10 ppm): 98.8
Test 1 Measured (Phytophthora infestans; component (b) alone, 0.4 ppm): 0.0
Test 1 Measured (Phytophthora infestans; component (b) alone, 2 ppm): 18.3
Test 1 Measured (Phytophthora infestans; component (b) alone, 10 ppm): 95.7

CC(C)CC(C)c1sccc1NC(=O)c1cn(C)nc1C(F)(F)F (stereo not drawn) [Penthiopyrad]
pest or weed control at 10 ppm [1, 2]: 0%
pest or weed control at 50 ppm [1, 3]: 0%
pest or weed control at 250 ppm [1, 4]: 27.5%
pest or weed control at 10 ppm (Phytophthora infestans; [5]): 0%
pest or weed control at 50 ppm (Phytophthora infestans; [5]): 0%
pest or weed control at 250 ppm (Phytophthora infestans; Phytophthora infestans, in Solanum lycopersicum, read-out: Test 1 preventive value, Measured, applied alone, 250 ppm): 0%

COc1cc(C)c(C(=O)c2c(OC)ncc(Cl)c2C)c(OC)c1OC [Pyriofenone]
Test 2 Measured ([1]; component (b) alone 250 ppm): 10
Test 2 Measured ([1]; component (b) alone, 10 ppm): 0
Test 2 Measured ([1]; component (b) alone, 50 ppm): 5
Test 1 preventive value, Measured (Phytophthora infestans; 10 ppm): 0.0
Test 1 preventive value, Measured (Phytophthora infestans; 50 ppm): 0.0
Test 1 preventive value, Measured (Phytophthora infestans; 250 ppm): 0.0
